From patent US20050209288A1, “Compositions comprising (S)-amlodipine malate and an angiotensin receptor blocker and methods of their use” (priority 2004, published 2005)

Key:
Type in all cases: in vivo, rat
rats [1] = assay: Phase III: dose response to (S)-amlodipine malate in absence and presence of an ARB (co-administration); conditions: for dose response curve of ARB plus (S)-amlodipine malate relative to (S)-amlodipine malate alone: ARB at its ED30 dose; for Potential Dosage Adjustment (%) of (S)-amlodipine malate (adjustment factor): co-administration with the named ARB, relative to ED50 92 μg/kg alone
Method: (§1) (S)-amlodipine malate and seven ARBs (candasartan, eprosartan, irbesartan, losartan, olmesartan, telmisartan and valsartan) were evaluated. The study was conducted in three parts. Phase I evaluated the time-course of the hypotensive actions of all eight agents ([S]-amlodipine and the seven ARBs). In Phase II, the dose-responsive effects of [S]-amlodipine malate and the seven ARBs were evaluated individually. From this phase of the study, ED30 and ED50 doses of each of the seven ARBs were identified, defined as the dose that produced 30 or 50 percent of the hypotensive effect produced by a rapid i.v. injection (30 μg/kg) of sodium nitroprusside (NTP), a short-acting vasodilator. In Phase III, the dose response to [S]-amlodipine was evaluated in the presence and absence of the ED30 and ED50 dose of each of the seven ARBs, with the objective of comparing the extent to which each ARB, at its ED30 or ED50, shifted the dose-response curve of [S]-amlodipine to the left and thus, lowering the apparent ED50 of the calcium channel blocker.
(§2) Animals were anesthetized with thiobutabarbital sodium (Inactin®, 150 mg/kg, delivered i.p.), tracheotomized and placed on a thermostatically controlled heating pad (37-38° C.). The jugular vein and the carotid artery were cannulated with PE-50 tubing for drug administration and recording of cardiovascular parameters, respectively. Blood pressure was recorded from the carotid artery by means of a pressure transducer and heart rate was derived electronically from the blood pressure signal. The signal output derived electronically from the arterial pressure was analyzed with a digital computer. The software IOX-16 continuously recorded the data every 5 sec during the entire procedure for each rat. Raw arterial pressure (in mmHg) and heart rate (beats per min), as well as changes in these two parameters relative to baseline or pre-drug levels (for doses other than initial dose), both in raw units (mm Hg or beats per min [bpm]) and as percentage change from baseline were captured and analyzed. The animals were allowed to equilibrate for 15-20 min before any treatment.
(§3) Doses are expressed in terms of free active substance. Each treatment was administered in a volume of 1 mL/kg by slow (over 20-30 seconds) i.v. bolus for all test articles, in all three phases.
(§4) The data were reported as mean ±S.E.M. (standard error of the mean) from 3-5 rats per group. Raw arterial pressure (in mmHg) and heart rate (beats per min), as well as changes in these two parameters relative to baseline or pre-drug levels (for doses other than initial dose), both in raw units (mmHg or beats per min [bpm]) and as percentage change from baseline, were captured and analyzed.
(§5) ED30 and ED50 for each drug were defined as the dose causing a decline in arterial pressure corresponding to 30% and to 50%, respectively, of the maximal drop in blood pressure produced by fast bolus i.v. injection (30 μg/kg) of sodium nitroprusside.
Dose-response curves with (S)-amlodipine malate in the absence and presence of each of the seven ARBs at its ED30 are shown in FIGS. 1A and 1B. The data shown in the figures are from experiments in which ED30 doses of each of the ARBs was combined with (S)-amlodipine malate. These were chosen because ED30 doses were obtainable by direct interpolation of dose response curves from Phase II. For several of the ARBs, doses corresponding to ED50 were obtained from extrapolation of their dose response curves.

rats [2] = conditions: anesthetized rats, 100 μg/kg i.v.
Method: as §1
as §2, with “The animals were allowed to equilibrate for 15-20 min before any treatment.” left out

rats [3] = assay: Phase II: dose-response of hypotensive effect, ED30/ED50 relative to sodium nitroprusside
Method: as §1, §2, §3, §4, §5
In this phase, the hypotensive response to sodium nitroprusside (NTP, 30 μg/kg, i.v. bolus), which was injected once at the end of the equilibration period, was used as a comparator and ED30 and ED50 doses were estimated as the percentage of the maximum NTP effect.

[4] = i.v., anesthetized rats, from dose-response curve

SMILES: CCCc1nc2c(C)cc(-c3nc4ccccc4n3C)cc2n1Cc1ccc(-c2ccccc2C(=O)O)cc1 [Telmisartan, 4′-[(1,4′-dimethyl-2′-propyl[2,6′-bi-1H-benzimidazol]-1′-yl)methyl]-[1,1′-biphenyl]-2-carboxylic acid]
- dose response curve of ARB plus (S)-amlodipine malate relative to (S)-amlodipine malate alone (rats [1]): offset

SMILES: CCOC(=O)C1=C(COCCN)NC(C)=C(C(=O)OC)[C@@H]1c1ccccc1Cl.O=C(O)C[C@H](O)C(=O)O [(S)-amlodipine malate]
- maximum decrease in blood pressure (rats [2]): 14-17 mmHg
- time to maximum hypotensive effect post-injection (rats [2]): 35 to 55 min
- ED50 of (S)-amlodipine malate in the absence of an ARB (rats [1]; i.v., anesthetized rats, Phase III): 0.092 mg/kg
- ED30 (dose causing 30% of the maximal drop in blood pressure produced by sodium nitroprusside) (rats [3]; [4]): 0.056 mg/kg
- ED50 (dose causing 50% of the maximal drop in blood pressure produced by sodium nitroprusside), estimated (rats [3]; [4]): 0.11 mg/kg

SMILES: CCOc1nc2cccc(C(=O)O)c2n1Cc1ccc(-c2ccccc2-c2nnn[nH]2)cc1 [Candasartan, 2-ethoxy-1-[[2′-(1H-tetrazol-5-yl)[1,1′-biphenyl]-4-yl]methyl]-1H-benzimidazole-7-carboxylic acid]
- dose response curve of ARB plus (S)-amlodipine malate relative to (S)-amlodipine malate alone (rats [1]): offset
- decline in MBP at the next higher dose (rats [3]; 300 mg/kg i.v. (so in the source)): no further decline
- ED30 (dose causing 30% of the maximal drop in blood pressure produced by sodium nitroprusside) (rats [3]; [4]): 0.008 mg/kg

SMILES: CCCCC1=NC2(CCCC2)C(=O)N1Cc1ccc(-c2ccccc2-c2nnn[nH]2)cc1 [Irbesartan, 2-butyl-3-[[2′-(1H-tetrazol-5-yl)[1,1′-bephenyl]-4-yl]methyl]-1,3-diazaspiro[4,4]non-1-en-4-one]
- Potential Dosage Adjustment (%) of (S)-amlodipine malate (adjustment factor) (rats [1]): 23%

SMILES: CCCCC(=O)N(Cc1ccc(-c2ccccc2-c2nnn[nH]2)cc1)[C@H](C(=O)O)C(C)C [Valsartan, N-(1-oxopentyl)-N-[[2′-(1H-tetrazol-5-yl)[1,1′-biphenyl]-4-yl]methyl]-L-valine]
- time to maximum hypotensive effect post-injection (rats [2]): five
- dose response curve of ARB plus (S)-amlodipine malate relative to (S)-amlodipine malate alone (rats [1]): greatest leftward shift
- Potential Dosage Adjustment (%) of (S)-amlodipine malate (adjustment factor) (rats [1]): 32%
- ED30 (dose causing 30% of the maximal drop in blood pressure produced by sodium nitroprusside) (rats [3]; [4]): 0.229 mg/kg

SMILES: CCCCc1ncc(/C=C(\Cc2cccs2)C(=O)O)n1Cc1ccc(C(=O)O)cc1 [Eprosartan, (E)-α-[[2-butyl-1-[(4-carboxyphenyl)methyl]-1H-imidazol-5-yl]methylene]-2-thiophenepropanoic acid]
- Potential Dosage Adjustment (%) of (S)-amlodipine malate (adjustment factor) (rats [1]): 24%

SMILES: CCCCc1nc(Cl)c(CO)n1Cc1ccc(-c2ccccc2-c2nnn[nH]2)cc1 [Losartan, 2-butyl-4-chloro-1-[[2′-(1H-tetrazol-5-yl)[1,1′-biphenyl]-4-yl]methyl]-1H-imidazole-5-methanol]
- Potential Dosage Adjustment (%) of (S)-amlodipine malate (adjustment factor) (rats [1]): 15%
